Source: patent US20050118658A1, “Use of ERRalpha phosphorylation status as a breast cancer biomarker” (priority 2003, published 2005)

Assays:
[1] = test system: ERRα; experiment: Immunoblot analysis of ERRα expression in ERRα-transfected BT-474 cells; assay type: cell-based, human; settings: BT-474 cells transfected with ERRα, 48 h; 20 μg/ml trastuzumab, 1 μM gefitinib, 20 μM U0126 or 20 μM LY294002
Method: (§1) BT-474 cells were co-transfected in parallel with the ERE(5x)-regulated and TATA dual-luciferase reporter gene sets along with the indicated expression plasmids. […] In panel (B), the cells were incubated for 48 h in estrogen-free medium supplemented with dimethyl sulfoxide as the drug vehicle control, 20 μM U0126 (MEK inhibitor), or 20 μM LY294002 (PI3K inhibitor) as indicated. After incubation for 48 h, the cells were harvested for dual-luciferase assays. Data were analyzed as described in the legend to FIG. 2. (C) Immunoblot analysis of protein extracts (20 μg per sample) prepared from BT-474 cells treated as in panels A and B above for luciferase activity. The membrane was probed with antibodies that react specifically with ERRα. Reactive proteins were visualized by enhanced chemiluminescence and autoradiography. (D) Immunoblot analysis as in panel C above, only the membrane was probed with antibodies that react specifically with phosphorylated Akt (p-Akt), total Akt, phosphorylated MAPK (p-MAPK) or total MAPK.
(§2) Proteins were extracted in Cell Lysis Buffer (Cell Signaling Technology, Beverly, Mass.) supplemented with Protease Inhibitor Cocktail Set III and Phosphatase Inhibitor Cocktail Set II (Calbiochem). Protein amounts were quantified with Coomassie Protein Assay Reagent (Pierce Biotechnology) with BSA as the standard. […] In FIG. 5D, the membrane was probed sequentially with p44/42 MAPK polyclonal antibody, phospho-specific p44/42 MAPK (Thr202/Tyr204) monoclonal antibody E10, Akt polyclonal antibody, and phospho-specific Akt (Ser473) polyclonal antibody (Cell Signaling Technology). Reacting material was detected using horseradish peroxidase-conjugated secondary antibodies (Jackson ImmunoResearch Laboratories, West Grove, Pa.) together with enhanced chemiluminescence (Amersham Pharmacia) and autoradiography.

[2] = test system: phosphorylated MAPK (p-MAPK); experiment: Immunoblot analysis of phosphorylated versus total MAPK in BT-474 cells; assay type: cell-based, human; settings: 48 h, 20 μg/ml trastuzumab, 1 μM gefitinib, 20 μM U0126 or 20 μM LY294002
Method: as §1, §2

[3] = test system: phosphorylated Akt (p-Akt); experiment: Immunoblot analysis of phosphorylated versus total Akt in BT-474 cells; assay type: cell-based, human; settings: 48 h, 20 μg/ml trastuzumab, 1 μM gefitinib, 20 μM U0126 or 20 μM LY294002
Method: as §1, §2

[4] = test system: BT-474 cells; settings: literature statement; cited from earlier work
[5] = test system: MCF-7 cells; settings: literature statement; cited from earlier work
[6] = test system: MCF-7 cells; experiment: 7 day growth assay, DNA content per well, MCF-7 cells; settings: 1I M gefitinib, 7 days
Method: Using 12-well plates, MCF-7 and BT-474 cells were seeded at 15,000 and 30,000 cells per well. Cells were cultured for 7 days in the presence of the indicated test agents with media changes at day 0, day 2 and day 5. Following the 7 day treatment course, cells were assayed for DNA content per well. The results shown represent the mean ± SEM of three replicate wells.
MCF-7 and BT-474 cells were seeded in 12-well plates at 15,000 and 30,000 cells per well, respectively. Cells were allowed to grow in the presence of the test agents for a total of 7 days, after which, they were harvested for measurement of DNA content per well using a fluorescent DNA quantification kit (Bio-Rad, Hercules, Calif.). Day 0 was considered to be 24 h after the cells were seeded, when the medium was initially replaced with fresh medium containing the test agents. The cell culture medium was again exchanged with fresh medium containing the appropriate test agents on days 2 and 5. […] The effects on cellular proliferation of the test agents are shown as the percentage of DNA amount per well relative to the control treated cells.

COc1cc2ncnc(Nc3ccc(F)c(Cl)c3)c2cc1OCCCN1CCOCC1 [gefitinib]
ERRα expression (immunoblot) [1]: expression was maintained | phosphorylation of MAPK / MEK/MAPK pathway activation (immunoblot) [2]: inhibited activation of the MEK/MAPK and PI3K/Akt signaling pathways | phosphorylation of Akt / PI3K/Akt pathway activation (immunoblot) [3]: inhibited activation of the MEK/MAPK and PI3K/Akt signaling pathways | effect on growth of BT-474 cells (known, ref. 26) [4]: significantly inhibit the growth | effect on growth of MCF-7 cells (known, ref. 35) [5]: affect only minimally the growth | effect on growth of MCF-7 cells [6]: did not significantly affect the growth
